Measured values published in patent US11753445B2, “Therapeutic peptides” (COHBAR, INC., priority 2016, dated 2023).
Peptide text beside a SMILES is read from it.

system: 3T3-L1 Adipocytes; experiment: Free fatty acid levels in cultured mouse 3T3-L1 adipocytes, isoproterenol stimulated (Example 2); type: cell-based; details: test peptides 25 μM; isoproterenol 1 nM
Procedure: Mouse 3T3-L1 cells were seeded at a density between 1,000-20,000 cells per well on 96-well, 48-well, or 24-well plates in Pre-adipocyte Medium (Zen-Bio, Durham, N.C.) and grown to confluence at 37° C. in a humidified atmosphere of 5% CO2/95% air. Two days after confluence, cells were placed in Adipocyte Differentiation Medium (Zen-Bio, Durham, N.C.) and cultured for three additional days at 37° C. in a humidified atmosphere of 5% CO2/95% air. The culture media was then replaced with Adipocyte Maintenance Medium (Zen-Bio) and the cells were maintained for an additional 9-14 days at 37° C. in a humidified atmosphere of 5% CO2/95% air with partial medium replacement every other day. Following 12-17 days of differentiation, test peptides were added at a final concentration of 25 μM and incubated for 18-20 hours in Adipocyte Maintenance Medium at 37° C. in a humidified atmosphere of 5% CO2/95%. After 18-20 hours, the media was exchanged with fresh Adipocyte Maintenance Medium containing test peptides and incubated for 1 h at 37° C. in a humidified atmosphere of 5% CO2/95%. After 1 h media was exchanged with Assay Buffer (Zen-Bio) containing isoproterenol (1 nM) (added to all samples except untreated controls) and the test peptides. Cells were incubated for a further 3 hours at 37° C. in a humidified atmosphere of 5% CO2/95%. Free fatty acid concentrations in the media were determined using a Free Fatty Acid Assay Kit (Zen-Bio) according to the manufacturer's instructions using a plate reader (540 nm).
Absorbance values were corrected for untreated background and expressed relative to isoproterenol treated cells. Treatment with isoproterenol (1 nM) alone was used as the free fatty acid level stimulatory control. The relative standard deviation of the isoproterenol control was <10%. […] Free fatty acid levels for insulin (100 nM) treatment were <5% of the isoproterenol control value.

Compound	Free Fatty Acid Levels in 3T3-L1 Adipocytes Expressed as a Percent of Isoproterenol Control: Percent of Control Value
CC[C@H](C)[C@@H]1NC(=O)[C@H](Cc2ccc(O)cc2)NC(=O)CNC(=O)[C@@H](NC(=O)[C@H](CCC(=O)O)NC(=O)[C@H](CCC(N)=O)NC(=O)[C@H](Cc2c[nH]c3ccccc23)NC(=O)[C@H](CCCNC(=N)N)NC(=O)[C@H](CCSC)NC(C)=O)CCC(=O)NCCCC[C@@H](C(=O)N[C@@H](CCCNC(=N)N)C(=O)N[C@@H](CCCCN)C(=O)N[C@@H](CC(C)C)C(=O)N[C@@H](CCCNC(=N)N)C(N)=O)NC(=O)[C@H](Cc2ccc(O)cc2)NC(=O)[C@H](Cc2ccccc2)NC1=O [compound 226] (HELM PEPTIDE1{[ac].M.R.W.Q.E.E.G.Y.I.F.Y.K.R.K.L.R.[am]}$PEPTIDE1,PEPTIDE1,7:R3-13:R3$$$V2.0)	79.8%
Ac-MRWQEMGYIEYPRKLR-NH2 [compound 191]	81.7%
Ac-MAWQEMGYIFYPRKLR-NH2 [compound 23]	74.7%
CC[C@H](C)[C@H](NC(=O)[C@H](Cc1ccc(O)cc1)NC(=O)CNC(=O)[C@H](CCSC)NC(=O)[C@H](CCC(=O)O)NC(=O)[C@H](CCC(N)=O)NC(=O)[C@H](Cc1c[nH]c2ccccc12)NC(=O)[C@H](CCCNC(=N)N)NC(=O)[C@@H](N)CCSC)C(=O)N[C@@H](Cc1ccccc1)C(=O)N[C@@H](Cc1ccc(O)cc1)C(=O)N1CCC[C@H]1C(=O)N[C@@H](CCCNC(=N)N)C(=O)N[C@@H](CCCCN)C(=O)NC(CC)(CC)C(=O)N[C@@H](CCCNC(=N)N)C(=O)O [compound 198] (HELM PEPTIDE1{M.R.W.Q.E.M.G.Y.I.F.Y.P.R.K.[CCC(CC)(N[*:1])C(=O)[*:2]].R}$$$$V2.0)	69.2%
Ac-MRWAEMGYIFYPRKLR-NH2 [compound 25]	27.8%
H-MRWQEMGYIFYERKLR-OH [compound 178]	67.6%
H-ERWQEAGYIFYPRKLA-OH [compound 233]	69.7%
H-MRWQEMGYIFYPRKER-OH [compound 181]	58.9%
H-MRWQEMGYIFYPRKLE-OH [compound 182]	36.6%
H-MRWQEMGEIFEPRKLR-OH [compound 134]	56.2%
CC[C@H](C)[C@H](NC(=O)[C@H](Cc1ccc(O)cc1)NC(=O)CNC(=O)[C@H](CCSC)NC(=O)[C@H](CCC(=O)O)NC(=O)[C@H](CCC(N)=O)NC(=O)[C@@H](C)NC(=O)[C@H](CCCNC(=N)N)NC(=O)[C@H](CCSC)NC(C)=O)C(=O)N[C@@H](Cc1ccccc1)C(=O)N[C@@H](Cc1ccc(O)cc1)C(=O)N1CCC[C@H]1C(=O)N[C@@H](CCCNC(=N)N)C(=O)N[C@@H](CCCCN)C(=O)N[C@@H](CC(C)C)C(=O)N[C@@H](CCCNC(=N)N)C(N)=O [compound 154] (HELM PEPTIDE1{[ac].M.R.[dA].Q.E.M.G.Y.I.F.Y.P.R.K.L.R.[am]}$$$$V2.0)	95.7%
Ac-LKWQEMGYIFYPRLKR-NH2 [compound 114]	78.4%
CC[C@H](C)[C@H](NC(=O)[C@H](Cc1ccc(O)cc1)NC(=O)CNC(=O)[C@H](CCSC)NC(=O)[C@H](CCC(=O)O)NC(=O)[C@H](CCC(N)=O)NC(=O)[C@H](Cc1c[nH]c2ccccc12)NC(=O)C(C)(C)NC(=O)[C@H](CCSC)NC(C)=O)C(=O)N[C@@H](Cc1ccccc1)C(=O)N[C@@H](Cc1ccc(O)cc1)C(=O)N1CCC[C@H]1C(=O)N[C@@H](CCCNC(=N)N)C(=O)N[C@@H](CCCCN)C(=O)N[C@@H](CC(C)C)C(=O)N[C@@H](CCCNC(=N)N)C(=O)O [compound 120] (HELM PEPTIDE1{[ac].M.[Aib].W.Q.E.M.G.Y.I.F.Y.P.R.K.L.R}$$$$V2.0)	86.0%
CC[C@H](C)[C@H](NC(=O)[C@H](Cc1ccc(O)cc1)NC(=O)CNC(=O)[C@H](C)NC(=O)[C@H](CCC(=O)O)NC(=O)[C@H](CCC(N)=O)NC(=O)[C@H](Cc1c[nH]c2ccccc12)NC(=O)[C@H](CCCNC(=N)N)NC(=O)[C@@H](C)N)C(=O)N[C@@H](Cc1ccccc1)C(=O)N[C@@H](CCC(=O)O)C(=O)N1CCC[C@H]1C(=O)N[C@@H](CCCNC(=N)N)C(=O)N[C@@H](CCCCN)C(=O)N[C@@H](CC(C)C)C(=O)N[C@H](C)C(=O)O [compound 243] (HELM PEPTIDE1{[dA].R.W.Q.E.A.G.Y.I.F.E.P.R.K.L.[dA]}$$$$V2.0)	82.3%
CC[C@H](C)[C@@H]1NC(=O)[C@H](Cc2ccc(O)cc2)NC(=O)CNC(=O)[C@H](CCSC)NC(=O)[C@@H](NC(=O)[C@H](CCC(N)=O)NC(=O)[C@H](Cc2c[nH]c3ccccc23)NC(=O)[C@H](CCCNC(=N)N)NC(=O)[C@H](CCSC)NC(C)=O)CCC(=O)NCCCC[C@@H](C(=O)N[C@@H](CC(C)C)C(=O)N[C@@H](CCCNC(=N)N)C(N)=O)NC(=O)[C@H](CCCNC(=N)N)NC(=O)[C@@H]2CCCN2C(=O)[C@H](Cc2ccc(O)cc2)NC(=O)[C@H](Cc2ccccc2)NC1=O [compound 227] (HELM PEPTIDE1{[ac].M.R.W.Q.E.M.G.Y.I.F.Y.P.R.K.L.R.[am]}$PEPTIDE1,PEPTIDE1,6:R3-15:R3$$$V2.0)	24.5%
CC[C@H](C)[C@H](NC(=O)[C@H](Cc1ccc(O)cc1)NC(=O)CNC(=O)[C@H](CCSC)NC(=O)[C@H](CCC(=O)O)NC(=O)[C@H](CCC(N)=O)NC(=O)[C@H](Cc1c[nH]c2ccccc12)NC(=O)C(C)(C)NC(=O)[C@H](CCSC)NC(C)=O)C(=O)N[C@@H](Cc1ccccc1)C(=O)N[C@@H](Cc1ccc(O)cc1)C(=O)N1CCC[C@H]1C(=O)N[C@@H](CCCNC(=N)N)C(=O)N[C@@H](CCCCN)C(=O)N[C@@H](CC(C)C)C(=O)N[C@@H](CCCNC(=N)N)C(N)=O [compound 121] (HELM PEPTIDE1{[ac].M.[Aib].W.Q.E.M.G.Y.I.F.Y.P.R.K.L.R.[am]}$$$$V2.0)	89.8%
Ac-MRWQDMGYIFYPRRLR-NH2 [compound 132]	102.6%
Ac-ARWQEMGYIFYPRKLR-NH2 [compound 22]	78.7%
CC[C@H](C)[C@@H]1NC(=O)[C@H](Cc2ccc(O)cc2)NC(=O)CNC(=O)[C@H](CCSC)NC(=O)[C@H](CCC(=O)O)NC(=O)[C@@H](NC(=O)[C@H](Cc2c[nH]c3ccccc23)NC(=O)[C@H](CCCNC(=N)N)NC(=O)[C@H](CCSC)NC(C)=O)CCC(=O)NCCCC[C@@H](C(=O)N[C@@H](CCCNC(=N)N)C(=O)N[C@@H](CCCCN)C(=O)N[C@@H](CC(C)C)C(=O)N[C@@H](CCCNC(=N)N)C(N)=O)NC(=O)[C@H](Cc2ccc(O)cc2)NC(=O)[C@H](Cc2ccccc2)NC1=O [compound 228] (HELM PEPTIDE1{[ac].M.R.W.E.E.M.G.Y.I.F.Y.K.R.K.L.R.[am]}$PEPTIDE1,PEPTIDE1,5:R3-13:R3$$$V2.0)	69.9%
CC[C@H](C)[C@@H]1NC(=O)[C@H](Cc2ccc(O)cc2)NC(=O)CNC(=O)[C@@H](NC(=O)[C@H](CCC(=O)O)NC(=O)[C@H](CCC(N)=O)NC(=O)[C@H](Cc2c[nH]c3ccccc23)NC(=O)[C@H](CCCNC(=N)N)NC(=O)[C@@H](N)CCSC)CCC(=O)NCCCC[C@@H](C(=O)N[C@@H](CCCNC(=N)N)C(=O)N[C@@H](CCCCN)C(=O)N[C@@H](CC(C)C)C(=O)N[C@@H](CCCNC(=N)N)C(=O)O)NC(=O)[C@H](Cc2ccc(O)cc2)NC(=O)[C@H](Cc2ccccc2)NC1=O [compound 221] (HELM PEPTIDE1{M.R.W.Q.E.E.G.Y.I.F.Y.K.R.K.L.R}$PEPTIDE1,PEPTIDE1,6:R3-12:R3$$$V2.0)	25.5%
H-MGYIFYPRKLR-OH [compound 42]	115.2%
H-MRWQEMGYIFYPEKLR-OH [compound 179]	47.2%
